Test results published in patent US12509423B2, “Compound, aldehyde dehydrogenase 2 activating agent, pharmaceutical composition, and therapeutic and/or prophylactic drug” (Alchemedicine, Inc., priority 2020, dated 2025).
pIC50: −log10 of the molar value.

Key:
[1] = molecular target: T1, human recombinant ALDH2 enzyme (Homo sapiens, UniProt P05091); test: ALDH2 activation effect (acetaldehyde oxidation rate, PicoProbe Aldehyde dehydrogenase Activity Assay Kit); type: biochemical
T1 construct: purchased BioVision Inc
T1 sequence (P05091 18-517): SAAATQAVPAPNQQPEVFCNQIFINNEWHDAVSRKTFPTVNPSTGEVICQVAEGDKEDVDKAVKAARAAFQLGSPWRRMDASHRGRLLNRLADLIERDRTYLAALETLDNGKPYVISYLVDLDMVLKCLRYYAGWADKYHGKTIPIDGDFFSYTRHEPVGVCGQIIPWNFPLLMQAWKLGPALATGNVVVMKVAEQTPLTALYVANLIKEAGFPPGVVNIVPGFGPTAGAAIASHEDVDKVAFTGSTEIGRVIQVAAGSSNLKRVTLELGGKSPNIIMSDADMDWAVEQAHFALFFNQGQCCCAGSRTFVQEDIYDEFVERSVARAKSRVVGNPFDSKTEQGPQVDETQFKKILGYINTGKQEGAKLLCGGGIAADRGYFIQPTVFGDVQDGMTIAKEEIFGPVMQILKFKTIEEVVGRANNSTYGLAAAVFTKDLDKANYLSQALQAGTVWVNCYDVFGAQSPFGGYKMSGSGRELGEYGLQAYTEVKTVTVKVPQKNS
Protocol: The activation effect of each test compound on the acetaldehyde oxidation rate of ALDH2 was measured with the following method. A test was conducted by using a commercially available PicoProbe™ Aldehyde dehydrogenase Activity Assay Kit (manufactured by BioVision Inc.) with reference to an instruction attached to the product under the following conditions. To each well of a 384-well plate, the following (1) to (3) were sequentially added with a pipette: • (1) 10 μL of solution obtained by dissolving and diluting a human recombinant ALDH2 enzyme (manufactured by BioVision Inc.) with ALDH assay Buffer to reach 3-μg/mL; • (2) 10 μL of 30 μM or 90 μM test compound solution (with 3% DMSO) prepared by using ALDH assay Buffer; and • (3) 10 μL of Reaction mix composed with ratio of 8.6 μL of ALDH assay Buffer, 0.6 μL of PicoProbe, 0.3 μL of Substrate Mix, and 1.5 μL of Acetaldehyde.
Before addition of (3), incubation was performed at room temperature for 5 minutes. After addition of (3), fluorescence intensity was measured at room temperature every 2.5 minutes over a period of 180 minutes by using an EnSight (manufactured by PerkinElmer Inc.). Wavelengths of 535 nm and 587 nm were used for fluorescence intensities of excitation and -emission, respectively.

[2] = molecular target: hERG (human Ether-a-go-go Related Gene) channel (Homo sapiens, UniProt Q12809); test: hERG channel inhibition effect (whole-cell patch clamp); type: cell-based; conditions: 22 to 25° C.
hERG (human Ether-a-go-go Related Gene) channel, sequence (Q12809 whole entry): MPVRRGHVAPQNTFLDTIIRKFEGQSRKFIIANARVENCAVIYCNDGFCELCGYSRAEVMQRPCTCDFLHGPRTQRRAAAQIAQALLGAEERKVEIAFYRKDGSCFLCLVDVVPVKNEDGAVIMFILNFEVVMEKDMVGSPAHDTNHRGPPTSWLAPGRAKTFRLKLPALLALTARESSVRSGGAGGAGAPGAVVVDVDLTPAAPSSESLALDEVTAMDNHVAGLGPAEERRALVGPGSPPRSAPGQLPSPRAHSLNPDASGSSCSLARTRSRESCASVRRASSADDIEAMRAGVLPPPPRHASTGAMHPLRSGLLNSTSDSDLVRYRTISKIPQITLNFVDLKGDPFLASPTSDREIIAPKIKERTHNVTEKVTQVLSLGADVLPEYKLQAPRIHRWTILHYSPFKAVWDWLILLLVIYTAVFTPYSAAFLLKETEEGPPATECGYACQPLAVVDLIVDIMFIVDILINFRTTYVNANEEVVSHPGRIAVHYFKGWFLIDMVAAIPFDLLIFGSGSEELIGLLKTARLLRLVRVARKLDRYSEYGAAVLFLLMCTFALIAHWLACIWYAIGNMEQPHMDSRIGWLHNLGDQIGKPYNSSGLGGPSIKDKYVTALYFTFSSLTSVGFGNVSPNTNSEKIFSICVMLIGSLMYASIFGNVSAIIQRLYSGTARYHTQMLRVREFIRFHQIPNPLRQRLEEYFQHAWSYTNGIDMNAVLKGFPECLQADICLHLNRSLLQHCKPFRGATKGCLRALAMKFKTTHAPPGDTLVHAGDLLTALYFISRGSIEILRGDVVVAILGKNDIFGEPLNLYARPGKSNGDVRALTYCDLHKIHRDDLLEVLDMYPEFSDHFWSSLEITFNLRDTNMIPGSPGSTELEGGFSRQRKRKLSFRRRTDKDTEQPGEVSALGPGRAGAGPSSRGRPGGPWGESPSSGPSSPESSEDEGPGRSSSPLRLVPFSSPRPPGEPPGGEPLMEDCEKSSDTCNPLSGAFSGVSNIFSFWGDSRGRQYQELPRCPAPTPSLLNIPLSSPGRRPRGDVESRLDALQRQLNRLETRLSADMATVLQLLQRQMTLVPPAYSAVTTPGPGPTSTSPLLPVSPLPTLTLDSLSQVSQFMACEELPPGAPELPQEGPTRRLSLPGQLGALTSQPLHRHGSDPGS
Protocol: The hERG (human Ether-a-go-go Related Gene) channel inhibition effect of each test compound was examined with the following patch clamp method.
Under a fixed potential, an hERG current that passed through the whole cell membrane was recorded with the whole-cell patch clamp method.
To confirm the hERG current, the holding potential was set to −80 mV, and depolarizing pulses at −50 mV for 110 msec and at 20 mV for 4 sec and a subsequent repolarizing pulse at −50 mV for 2 sec were provided at a frequency of once per 15 seconds. After the stabilization of the hERG tail current obtained was confirmed, an application was initiated. The pulses were continuously provided also during the application.
The sampling frequency was set to 5 kHz, and Lowpass Filter was applied at 2 kHz. […]
hERG currents were measured by using an amplifier for patch clamping (Axopatch 200B, Molecular Devices, LLC), and electric signals obtained were recorded in a computer via recording/analysis software for patch clamping (pCLAMP 10, Molecular Devices, LLC).
The maximum tail current value was determined on the basis of the current value with the depolarizing pulse at −50 mV for 110 msec, and the change rate (suppression rate) 5 minutes after the initiation of application to the maximum tail current value before application of the test compound was calculated.

[3] = Metabolic stability with human hepatic microsomes; type: in vitro ADME; conditions: human hepatic microsomes 0.1 mg protein/mL, 0.1 μmol/L test compound, after 30 minutes, 37° C.
Protocol: The specific method is as follows.
• (1) Fifty microliter-portions were taken from 0.2 μmol/L test compound diluted with β-NADPH solution. • (2) Fifty microliters of 0.2 mg protein/mL human hepatic microsome solution was added to each (except for a sample with a reaction time of 0 minutes). • (3) Incubation was performed with shaking at 37° C. for 30 minutes (concentration in reaction sample: 0.1 μmol/L test compound, 0.1 mg protein/mL human hepatic microsome). • (4) After incubation, 400 μL of methanol was added to terminate the reaction. • (5) To the sample with a reaction time of 0 minutes, 50 μL of 0.2 mg protein/mL hepatic microsome solution was added. • (6) Each of the samples from (4) and (5) was left to stand at −20° C. for 30 minutes or longer, and then centrifuged at 4° C. and 3,000 rpm for approximately 10 minutes. • (7) The supernatant was subjected to measurement with LC/MS/MS, and, based on the peak area obtained for the unchanged form, the residual rate (%) of the unchanged form was calculated as that for the case with an incubation time of 0 minutes was assumed as 100%.

[4] = Metabolic stability with mouse hepatic microsomes; type: in vitro ADME; conditions: for Residual rate (%) of unchanged form: mouse hepatic microsomes, after 30 minutes, 37° C., NADPH
Protocol: Metabolic stability in mouse hepatic microsomes was evaluated with the following method.
• (1) Mouse hepatic microsomes: 20 mg/mL • (2) Test compound: 1.1 mM DMSO solution • (3) Potassium phosphate buffer solution: 66.7 mM (pH 7.4) • (4) NADPH solution: 10 mM in potassium phosphate buffer solution • (5) Quenching solution: 0.5% formic acid-acetonitrile solution with warfarin as internal standard substance 2. Method
Into a propylene tube, 971.5 μL of the potassium phosphate buffer solution and 27.5 μL of the mouse hepatic microsomes were put and suspended. Thereto, 1 μL of a test compound was added, and 180 μL was taken from this mixture and transferred into another tube. The mixture was preincubated at 37° C. for 5 minutes, and 20 μL of the NADPH solution (for the case with an incubation time of 30 minutes) or 20 μL of the potassium phosphate buffer solution (for the case with an incubation time of 0 minutes) was then added thereto. After incubation, 200 μL of the quenching solution was added to terminate the reaction. Subsequently, centrifugation was performed at 3220×g for 20 minutes, and the concentration of the unchanged form of the test compound in 200 μL of the supernatant was measured with LC-MS/MS. On the basis of the peak area obtained for the unchanged form, the residual rate (%) of the unchanged form was calculated as that for the case with an incubation time of 0 minutes was assumed as 100%.

[5] = concentration of test compound 10 μM
[6] = concentration of test compound 30 μM

| SMILES | acetaldehyde oxidation rate (rate with no test compound assumed as 100%) [1, 5] [%] | acetaldehyde oxidation rate (rate with no test compound assumed as 100%) [1, 6] [%] | Residual rate (%) of unchanged form [3] [%] | metabolic stability in mouse hepatic microsomes (in words) [4] | Residual rate (%) of unchanged form [4] [%] | pIC50 [2] |
| --- | --- | --- | --- | --- | --- | --- |
| COCc1ccc(CNC(=O)c2cc(-c3ncccc3C(C)O)ccc2F)cc1F (racemic) [Example 2, Racemic 2-fluoro-N-(3-fluoro-4-(methoxymethyl)benzyl)-5-(3-(1-hydroxyethyl)pyridin-2-yl)benzamide] | 127 | 166 | 87 | confirmed to have stability | 68 | < 4.52 |
| O=C(NCc1ccc2c(c1)OCO2)c1c(Cl)cccc1Cl [Comparative Example 1, reference compound] | 149 | 176 |  |  | <1 |  |
| CC(O)c1cccnc1-c1ccc(F)c(C(=O)NCc2ccc(COC(F)F)c(F)c2)c1 (stereo not drawn) [Example 5, N-(4-((Difluoromethoxy)methyl)-3-fluorobenzyl)-2-fluoro-5-(3-(1-hydroxyethyl)pyridin-2-yl)benzamide] | 124 | 146 | 72 | confirmed to have stability | 52 |  |
| COCc1ccc(CNC(=O)c2cc(-c3ncccc3C(C)O)ccc2F)cc1F (single isomer, unassigned) [Example 4, Chiral 2-fluoro-N-(3-fluoro-4-(methoxymethyl)benzyl)-5-(3-(1-hydroxyethyl)pyridin-2-yl)benzamide] | 131 | 155 |  |  | 60 |  |
| COCc1ccc(CNC(=O)c2cc(-c3ncccc3C(C)O)ccc2F)cc1F (single isomer, unassigned) [Example 3, Chiral 2-fluoro-N-(3-fluoro-4-(methoxymethyl)benzyl)-5-(3-(1-hydroxyethyl)pyridin-2-yl)benzamide] | 137 | 176 |  |  | 64 |  |

Continued, in another order:

| acetaldehyde oxidation rate (rate with no test compound assumed as 100%) [1, 5] [%] | acetaldehyde oxidation rate (rate with no test compound assumed as 100%) [1, 6] [%] | Residual rate (%) of unchanged form [3] [%] | metabolic stability in mouse hepatic microsomes (in words) [4] | Residual rate (%) of unchanged form [4] [%] | SMILES | pIC50 [2] |
| --- | --- | --- | --- | --- | --- | --- |
|  |  |  |  | <1 | COCc1ccc(CNC(=O)c2c(F)cccc2Br)cc1F [Comparative Example 4, reference compound] |  |
|  |  |  |  | 6 | COc1ccc(CNC(=O)c2cc(-c3ncccc3CO)ccc2OCC2CC2)cc1F [Comparative Example 2, reference compound] |  |
| 139 | 161 | 75 | confirmed to have stability | 24 | COCc1ccc(CNC(=O)c2cc(-c3ncccc3COC)ccc2F)cc1F [Example 6, 2-Fluoro-N-(3-fluoro-4-(methoxymethyl)benzyl)-5-(3-(methoxymethyl)pyridin-2-yl)benzamide] |  |
|  |  |  |  | 1 | COCc1ccc(CNC(=O)c2c(F)cccc2F)cc1F [Comparative Example 6, reference compound] |  |
|  |  |  |  | <1 | COCc1ccc(CNC(=O)c2c(F)cccc2Cl)cc1F [Comparative Example 5, reference compound] |  |
|  |  |  |  | 1 | COCc1ccc(CNC(=O)c2c(Cl)cccc2Cl)cc1F [Comparative Example 3, reference compound] |  |
| 157 | 170 |  |  | 74 | COCc1ccc(CNC(=O)c2cc(-c3n[nH]cc3CO)ccc2Cl)cc1F [Example 7, 2-Chloro-N-(3-fluoro-4-(methoxymethyl)benzyl)-5-(4-(hydroxymethyl)-1H-pyrazol-3-yl)benzamide] |  |
